“And” between values parts separate entries of the source, which are not always exact repeats. Identical values can stand only once. “Also recorded” adds a separate entry of the source. Like-named read-outs stand apart in the source and are kept apart here.
Legend:
[1] = system: WBC and Interleukins (IL6, IL8 and IL1b) in urine; assay: Nine-patient study: estimated WBC and Interleukins in urine; format: in vivo, human; settings: prior, during or after treatment
Source text: (§1) The effect of anakinra in the treatment of CPPS was studied in a clinical study. Inclusion criteria were CPPS mainly with the Bladder Pain phenotype, but also the with the Urethral and Prostate Pain phenotype. Exclusion criteria were uncontrolled diabetes mellitus, treatment for malignant disease within the preceding 10 years, pregnancy and age <18 years and ongoing infectious diseases, including urinary tract infections, and neutropenia (<1.5×10^9/L). Patients gave informed consent for the use of unidentified personal clinical data for research purposes. Included patients were examined using clinical standard methods to rule out any ongoing disease. Blood and serum for hemoglobulin, liver and kidney function tests and White Blood Cell (WBC) counts were analysed. Urine was obtained for dip stick test (leukocytesteras for WBC estimation, the nitur test for ruling out bacteriuria), standard urinary Interleukins (IL6, IL8 and IL1b) and for urine culture. Cystoscopy and CT urography were performed in all patients. Blood and serum analysis and cystoscopy were repeated approximately two weeks after the start of treatment, and after approximately three months. Nine patients were recruited (Table 2).

[2] = system: neuro-inflammation, TLR dependent pattern recognition and IL-1 signaling; IL-1R1 dependent gene network; assay: BPS trial: transcriptomic analysis of peripheral blood RNA; format: in vivo, human; settings: for gene expression, words: peripheral blood RNA
Source text: a) Schematic of the study protocol. Ten patients with a long history of BPS (ref EAU guidelines) were enrolled after informed consent and instructed to fill in a questionnaire detailing frequency of urination, pain, frequency of pain medication and quality of life. Laboratory samples were obtained at diagnosis, after the initiation of Kineret treatment (n=10), during the “treatment break” and after continuation of Kineret treatment (n=9). Neuropeptides involved in the pain response (Substance P) were quantified in urine. Peripheral blood RNA was subjected to genome wide transcriptomic analysis to define molecular effects of Kineret treatment.
To further understand the molecular basis of these effects, gene expression was analyzed longitudinally in RNA samples obtained; at onset, when the patients were in pain; at the time of maximum treatment effect in the first round; when pain returned during the treatment break; after reintroduction of Anakinra and at follow up, after 1-2 years of treatment. […] Due to the pronounced effect on IL-1 related genes, we further investigated a gene network downstream of IL-1R1. In 8 out of 10 patients a marked reduction in IL-1R1 dependent gene expression was detected, primarily genes including CXCL1, IL1RAP CXCL3 and the IL1R1 gene itself.

NK1R and its ligand SP = settings: mice; cited from earlier work
Substance P [3] = assay: Ten-patient CPPS trial: urine neuropeptides; format: in vivo, human; settings: P<0.001
Method: A significant reduction in pain, urgency and frequency of urination was recorded in 9/10 patients (FIGS. 7c, 7d and 7e). Laboratory samples were obtained at diagnosis, after the initiation of anakinra treatment (n=10), during the “treatment break” and after continuation of anakinra treatment (n=9). Urine neuropeptides involved in the pain response (Substance P) were inhibited, with a biphasic response following the symptom score (FIG. 7f).

Substance P [4] = assay: Urine Substance P (SP) concentration, patients with chronic cystitis; format: in vivo, human
Method: Samples: Blood and urine samples for investigation of inflammatory processes as well as genetic and proteomic analyses.
For evaluation of the levels of systemic and local inflammatory processes, analyses of CRP, neutrophil count and Interleukins are performed in serum and urine.
To be able to define a treatment group where anakinra might serve as an effective therapeutic option, we searched for urine biomarkers. In addition to patient urine samples, samples were collected from healthy controls to compare urine concentrations of IL-1β and Substance P (SP). […] In contrast, SP concentrations was increased in patients during maximum symptoms (209 vs 75 pg/ml, P=0.003), indicating a biomarker for bladder inflammation (FIG. 2).

murine cystitis model = settings: mice, cited from earlier work
[5] = system: patients with chronic cystitis and CPPS; assay: Open Anakinra trial, symptom score; format: in vivo, human
Method: The applicants have performed an open Anakinra trial in patients with chronic inflammatory conditions in the lower urinary tract, specifically chronic cystitis and CPPS. This structured observational study to investigate the effect of treatment with Anakinra in patients suffering from chronic cystitis and CPPS.
Inclusion visit: Patient is informed about the study and is included after signed informed consent is obtained. A structured interview and clinical investigation is performed. The disease severity is evaluated using a symptom score. Follow-up visits are booked.
A structured interview and clinical investigation is performed. Symptom severity is recorded.
Treatment with Anakinra is started and continued for seven days (until next visit).
Evaluation of effect after one week of treatment with Anakinra. A structured interview and clinical investigation are performed. Symptom severity is evaluated. Patients with no treatment effect are excluded from further treatment.
Follow-up after treatment pause. A structured interview and clinical investigation is performed. Symptom severity is evaluated. If the patient has relapse, Anakinra treatment is resumed.
Follow-up with evaluation of effect after three weeks of treatment with Anakinra. A structured interview and clinical investigation is performed. Symptom severity is evaluated.
Final visit after pause of treatment with Anakinra. A structured interview and clinical investigation is performed. Symptom severity is evaluated.
During patient visits, structured interviews evaluating symptoms (including consumption of medications) and clinical investigations are performed. Throughout the study period, the patients make daily symptom scores regarding pain, urination, sense of urgency and quality of life following a structured formula.

[6] = system: patients with CPPS (Bladder, Urethral and Prostate Pain phenotype); assay: Clinical study, nine CPPS patients: symptom scoring (frequency, pain, QoL), side effects; format: in vivo, human; settings: for clinical response in the detailed patient description, words: one patient per block (Patient 1-9); for Long-term follow-up: Comment: s.c. 100 mg long-term regimen, observation 24-397 days
Source text: as §1
After inclusion, patients were treated with anakinra 100 mg by self-administrated subcutaneous injection, repeated once daily as a maximum, or (if relief of symptoms and pain) on demand when symptoms or pain recurred. Regularly symptom scoring on frequency, supra-pubic/bladder pain/prostate/urethral pain and Quality of Life was performed to evaluate treatment effect.

[7] = post treatment, individual patients
[8] = pre treatment baseline, individual patients

Substance: anakinra: interleukin-1 receptor antagonist (r-metHuIL-1ra) produced in Escherichia coli; recombinant, slightly modified version of the human interleukin-1 receptor antagonist protein
- estimated WBC and Interleukins in urine, words [1]: not significantly increased
- patients with marked reduction in IL-1R1 dependent gene expression ([2]; genes including CXCL1, IL1RAP, CXCL3, IL1R1): 8 out of 10
- gene expression, words [2]: inhibited by treatment
- gene expression, words ([2]; listed as Kineret): inhibited
- expression of NK1R and SP in the bladder mucosa, words (NK1R and its ligand SP): reduced the expression of the pain receptor NK1R and its ligand SP
- urine neuropeptide (Substance P) levels, words (Substance P [3]): markedly reduced; also recorded: inhibited
- urine SP levels after Anakinra treatment (Substance P [4]; FIG. 3): reduced
- urine SP concentration at time of minimum symptom, after treatment (Substance P [4]; paired samples, P=0.02): 136 pg/mL
- urine SP concentration at time of maximum symptom (Substance P [4]; paired samples, baseline of the comparison, P=0.02): 243 pg/mL
- bacterial clearance, words (murine cystitis model): accelerate bacterial clearance
- bladder inflammation, words (murine cystitis model): dramatically reduce bladder inflammation
- bacterial clearance, words (murine cystitis model; listed as Kineret): increased bacterial clearance
- bladder inflammation, words (murine cystitis model; listed as Kineret): dramatically reduced bladder inflammation
- patients in whom treatment was proven effective (decrease in symptom scoring) ([5]; in vivo): 60%
- Symptom Score Decrease at 1 week of treatment (number of patients) ([5]; of 15 patients recruited): 9
- Symptom Score No Decrease at 1 week of treatment (number of patients) ([5]; of 15 patients recruited): 6
- side effects ([6]; 100 mg s.c.): sparse and mild; also recorded: two cases of skin reaction at the place of injection; also recorded: one case of headache post injection; also recorded: without side effects; also recorded: minor headache
- Side effect ([6]; 100 mg s.c., individual patients): local s.c. irritation; also recorded: not reported; also recorded: headache post inj
- clinical response in the detailed patient description, words ([6]; 100 mg s.c.): subjectively significantly improved with a clear reduction in frequency and local pain from the bladder; also recorded: pain relief followed immediately; also recorded: constant relief of symptoms; also recorded: the urge, frequency and bladder pain dramatically decreased; also recorded: the urgency and frequency was dramatically reduced; also recorded: relief of fever attacks and arthralgia, as well as reduced urgency and frequency
- clinical response in the detailed patient description, words ([6]; 100 mg s.c., listed as Anakinra): significant symptom and pain relief; also recorded: constant relief of symptoms
- maximum effect generally lasted ([6]; after one s.c. inj. of 100 mg): 2 to 3 days
- maximum effect on symptoms seen within ([6]; after one s.c. inj. of 100 mg, all nine patients): 1 to 24 h
- symptoms as measured by symptom scoring, words ([6]; all patients): dramatically reduced symptoms
- treatment effect during long-term follow-up, words ([6]; all patients): consistent
- experienced quality of life (QoL), words ([6]; human, in vivo): increased in all patients; also recorded: highly increased, or increased
- number of micturitions at night-time, words ([6]; human, in vivo): generally reduced
- number of micturitions during daytime, words ([6]; human, in vivo): reduced in all patients
- pain experienced by the patients, words ([6]; human, in vivo): decreased dramatically
- patients completely free from pain ([6]; of nine patients): five out of the nine
- Frequency (nycturia) post (number of micturations during nighttime) [6, 7]: (0) and (1) (6×) and (2)
- Frequency post (number of micturations during daytime) [6, 7]: 5 (2×) and 4 (2×) and 6 (3×) and 8
- Frequency (nycturia) pre (number of micturations during nighttime) [6, 8]: (1-2) and (5) (3×) and (3) (2×) and (4) and (1)
- Frequency pre (number of micturations during daytime) [6, 8]: 12 (4×) and 11 and 8 (2×) and 7
- Long-term follow-up: Comment ([6]; individual patients, 100 mg s.c. dosing 1 per 2-4 weeks): increased QoL,; also recorded: symptom free
- Long-term follow-up: Comment ([6]; individual patients, 100 mg s.c. dosing 1 per 2-3 days): highly increased QoL
- Long-term follow-up: Comment ([6]; individual patients, 100 mg s.c. dosing 1 per day): highly increased QoL,; also recorded: planned cystectomy postponed
- Long-term follow-up: Comment ([6]; individual patients, 100 mg s.c. dosing 1 per week): highly increased QoL; also recorded: highly increased QoL,; also recorded: highly increased QoL;
- QoL reduction post ([6]; score 0-6, 0 not reduced QoL, post treatment, individual patients): 2 (2×) and 1 (2×) and 0 (5×)
- Pain post ([6]; score 0-6, 0 symptom-free, post treatment, individual patients): 2 (2×) and 1 (2×) and 0 (5×)
- Pain pre ([6]; score 0-6, 6 severe pain, pre treatment baseline, individual patients): 5 (3×) and 5-6 and 6 and 4 (4×)
- QoL reduction pre ([6]; score 0-6, 6 severely reduced QoL, pre treatment baseline, individual patients): 5 (3×) and 5-6 and 6 (2×) and 4 (3×)

From patent US20220252625A1, “TREATMENT AND DIAGNOSIS OF CHRONIC INFLAMMATORY CONDITIONS IN THE LOWER URINARY TRACT” (SELECTIMMUNE PHARMA AB, priority 2019, published 2022)
